Assay results as given in article PMC3280264 (PLoS ONE, 2012).

Target: T1, Human SGLT3 (Homo sapiens, UniProt Q9NY91)
T1 construct: expressed in transfected cells; host or cells: oocytes (from Nasco), injected with mRNA
T1 sequence (Q9NY91 1-659): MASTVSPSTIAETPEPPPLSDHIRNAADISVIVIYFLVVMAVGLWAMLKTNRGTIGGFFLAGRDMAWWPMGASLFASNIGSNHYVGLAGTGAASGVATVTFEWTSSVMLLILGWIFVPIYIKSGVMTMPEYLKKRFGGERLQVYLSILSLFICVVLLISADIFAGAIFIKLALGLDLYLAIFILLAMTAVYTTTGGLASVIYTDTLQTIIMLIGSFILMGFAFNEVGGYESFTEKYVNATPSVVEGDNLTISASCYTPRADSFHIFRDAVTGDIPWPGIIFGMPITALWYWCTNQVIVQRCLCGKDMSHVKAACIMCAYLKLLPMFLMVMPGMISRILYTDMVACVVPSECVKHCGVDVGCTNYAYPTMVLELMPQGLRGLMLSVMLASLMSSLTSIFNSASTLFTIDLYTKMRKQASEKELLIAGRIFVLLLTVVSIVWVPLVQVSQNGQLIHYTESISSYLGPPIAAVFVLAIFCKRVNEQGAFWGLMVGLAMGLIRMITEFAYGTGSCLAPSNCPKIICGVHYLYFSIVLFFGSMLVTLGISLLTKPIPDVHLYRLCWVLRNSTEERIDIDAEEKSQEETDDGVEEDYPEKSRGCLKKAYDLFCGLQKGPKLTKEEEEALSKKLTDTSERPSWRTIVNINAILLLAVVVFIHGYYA
Test: Two-electrode voltage clamp recording of oocytes expressing human SGLT3 (DNJ-induced currents)
Format: cell-based
Experimental: Oocytes were obtained from Nasco (Fort Atkinson, Wisconsin, USA). Stage V–VI oocytes were injected with 50 nl of either human SGLT3 mRNA (at 1 ng/nl) or distilled water (control) and incubated at 18°C in a calcium-free solution (92 mM NaCl, 2 mM KCl, 1 mM MgCl2, 5 mM HEPES, 0.05 mg/ml gentamicin at pH 7.5) for 4–6 days before recording. The extracellular recording solution contained 92 mM NaCl, 2 mM KCl, 1.8 mM CaCl2, 1 mM MgCl2, and 5 mM HEPES at pH 7.5. Injected oocytes were impaled with 2 microelectrodes filled with 3 M KCl (resistance of ∼0.5–3 MΩ) and voltage clamped to −120 mV, at which continuous recordings were made (filtered at 5 kHz and sampled at 625 Hz). To establish the baseline in the absence of agonist, oocytes were first perfused for 85 seconds with a control buffer (92 mM NaCl, 2 mM KCl, 1.8 mM CaCl2, 1 mM MgCl2, 5 mM HEPES at pH 7.5). […] Finally, phlorizin (3 mM) was applied in the presence of 50 µM DNJ for 160 seconds. All experiments were performed at 22°C. Currents in the presence of 50 µM DNJ were subtracted from leak currents (currents in control buffer alone) to obtain DNJ-induced currents (IDNJ). Effects of compounds were calculated as: % Inhibition = 100×(IDNJ−Icmpd)/IDNJ, where Icmpd is the DNJ-induced and leak-subtracted current in the presence of a compound or DMSO. Due to lack of effect at the highest dose tested, a dose-response relationship was not examined.

## Cc1ccc([C@@H]2O[C@H](CO)[C@@H](O)[C@H](O)[C@H]2O)cc1Cc1ccc(-c2ccc(F)cc2)s1 [canagliflozin, Canagliflozin]
10 µM, SGLT3-injected oocytes, 50 µM DNJ, n = 9, DMSO 15.6±3.1%, difference not statistically significant
  inhibition at 10 µM: 23.4 ± 4.3%
10 µM, sham (water)-injected oocytes, in the presence of 50 µM DNJ
  effect on currents in sham-injected oocytes: did not affect currents
Oocytes expressing human SGLT3, column head IC50, nM
  effect on DNJ-induced currents: No inhibitory effect
